PubChem BioAssay AID1313 (NMMLSC, 2008)
Activity calls are given as the source filed them.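 How the source made its calls: active means compounds raising total GFP signal across six hours by more than 15% versus untreated cells; inactive means the rest.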 Peptide text beside a SMILES is read from it. * marks the point of attachment. Cbz = O=C(OCc1ccccc1)*

Test system: S. cerevisiae Sic1-GFP degradation, flow cytometry time course
Assay: yeast Sic1-GFP proteasomal turnover blockers – secondary assay, flow cytometry, S. cerevisiae (AID 1313)
Settings: stronger effect = higher value; for GFP expression remaining at 240 min: measured here: earlier time point

## CC(C)C[C@@H](C=O)NC(=O)[C@H](CC(C)C)NC(=O)[C@H](CC(C)C)NC(=O)OCc1ccccc1 (Cbz-Leu-Leu-Leu-aldehyde)
  GFP expression remaining at 360 min: 1.68% (inactive)
  GFP expression remaining at 240 min: 3.24%

## CC(=O)N1C(=O)C(=C2C=C(C)OC(C)=C2)c2ccccc21
  GFP expression remaining at 360 min: 0.71% (inactive)
  GFP expression remaining at 240 min: 1.3%
